Where only a bound is given, the exact number is not on record here.

Consider 25 compounds from patent US20250215012A1, “IKZF2 DEGRADERS AND USES THEREOF” (REGENTS OF THE UNIVERSITY OF MICHIGAN, priority 2022, published 2025).

This assay addresses IKZF2 (Homo sapiens (Human), UniProt Q96SW2+Q9UKS7). The assay can be described thus: IKZF2 HiBiT Assay (Jurkat-IKZF2-HiBiT cell line). As to conditions: Jurkat-IKZF2-HiBiT cells, 24 hours; for DC50: read-out: HiBit assay degradation analysis DC50; for Dmax: read-out: HiBit assay degradation analysis Dmax. Format: cell-based. The essentials:
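Jurkat cells carrying HiBiT-tagged IKZF2 were exposed to serially diluted compound for 24 h at 37 °C. Remaining IKZF2 was measured by Nano-Glo HiBiT lytic luminescence after 10-20 min at room temperature. Signal was normalized to DMSO, and IC50 came from a four-parameter variable-slope fit.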
Background: HiBiT is a short tag that completes a luciferase, so light tracks the accessible tagged protein.

Sequence of IKZF2 (Q9UKS7 whole entry): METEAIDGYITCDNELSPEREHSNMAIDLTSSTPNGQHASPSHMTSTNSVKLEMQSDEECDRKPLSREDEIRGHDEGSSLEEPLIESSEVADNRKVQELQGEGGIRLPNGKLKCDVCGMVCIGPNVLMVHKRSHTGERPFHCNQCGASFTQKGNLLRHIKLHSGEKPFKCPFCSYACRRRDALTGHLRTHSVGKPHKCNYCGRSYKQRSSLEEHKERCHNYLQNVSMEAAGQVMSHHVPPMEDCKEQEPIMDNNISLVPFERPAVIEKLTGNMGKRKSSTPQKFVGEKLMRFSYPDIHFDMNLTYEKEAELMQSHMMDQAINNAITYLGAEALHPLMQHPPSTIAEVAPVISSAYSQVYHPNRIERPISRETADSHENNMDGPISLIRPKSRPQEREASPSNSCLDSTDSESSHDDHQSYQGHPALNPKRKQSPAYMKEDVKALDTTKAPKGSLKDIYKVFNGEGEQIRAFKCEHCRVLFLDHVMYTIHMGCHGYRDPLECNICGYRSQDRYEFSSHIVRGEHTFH
Sequence of IKZF2 (Q96SW2 whole entry): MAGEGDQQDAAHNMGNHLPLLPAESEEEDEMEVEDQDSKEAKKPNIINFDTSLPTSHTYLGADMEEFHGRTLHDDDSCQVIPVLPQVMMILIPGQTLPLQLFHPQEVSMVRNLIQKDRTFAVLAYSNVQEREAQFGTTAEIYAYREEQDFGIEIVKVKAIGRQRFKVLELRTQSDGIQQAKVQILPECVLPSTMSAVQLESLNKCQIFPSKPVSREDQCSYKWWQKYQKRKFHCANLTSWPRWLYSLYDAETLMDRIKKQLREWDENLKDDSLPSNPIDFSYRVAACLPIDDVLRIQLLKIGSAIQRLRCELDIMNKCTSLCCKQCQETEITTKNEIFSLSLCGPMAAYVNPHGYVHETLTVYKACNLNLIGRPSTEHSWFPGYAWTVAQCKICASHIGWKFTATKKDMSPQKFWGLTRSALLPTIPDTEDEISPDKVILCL
Sequence of IKZF2 (Q16531 whole entry partner): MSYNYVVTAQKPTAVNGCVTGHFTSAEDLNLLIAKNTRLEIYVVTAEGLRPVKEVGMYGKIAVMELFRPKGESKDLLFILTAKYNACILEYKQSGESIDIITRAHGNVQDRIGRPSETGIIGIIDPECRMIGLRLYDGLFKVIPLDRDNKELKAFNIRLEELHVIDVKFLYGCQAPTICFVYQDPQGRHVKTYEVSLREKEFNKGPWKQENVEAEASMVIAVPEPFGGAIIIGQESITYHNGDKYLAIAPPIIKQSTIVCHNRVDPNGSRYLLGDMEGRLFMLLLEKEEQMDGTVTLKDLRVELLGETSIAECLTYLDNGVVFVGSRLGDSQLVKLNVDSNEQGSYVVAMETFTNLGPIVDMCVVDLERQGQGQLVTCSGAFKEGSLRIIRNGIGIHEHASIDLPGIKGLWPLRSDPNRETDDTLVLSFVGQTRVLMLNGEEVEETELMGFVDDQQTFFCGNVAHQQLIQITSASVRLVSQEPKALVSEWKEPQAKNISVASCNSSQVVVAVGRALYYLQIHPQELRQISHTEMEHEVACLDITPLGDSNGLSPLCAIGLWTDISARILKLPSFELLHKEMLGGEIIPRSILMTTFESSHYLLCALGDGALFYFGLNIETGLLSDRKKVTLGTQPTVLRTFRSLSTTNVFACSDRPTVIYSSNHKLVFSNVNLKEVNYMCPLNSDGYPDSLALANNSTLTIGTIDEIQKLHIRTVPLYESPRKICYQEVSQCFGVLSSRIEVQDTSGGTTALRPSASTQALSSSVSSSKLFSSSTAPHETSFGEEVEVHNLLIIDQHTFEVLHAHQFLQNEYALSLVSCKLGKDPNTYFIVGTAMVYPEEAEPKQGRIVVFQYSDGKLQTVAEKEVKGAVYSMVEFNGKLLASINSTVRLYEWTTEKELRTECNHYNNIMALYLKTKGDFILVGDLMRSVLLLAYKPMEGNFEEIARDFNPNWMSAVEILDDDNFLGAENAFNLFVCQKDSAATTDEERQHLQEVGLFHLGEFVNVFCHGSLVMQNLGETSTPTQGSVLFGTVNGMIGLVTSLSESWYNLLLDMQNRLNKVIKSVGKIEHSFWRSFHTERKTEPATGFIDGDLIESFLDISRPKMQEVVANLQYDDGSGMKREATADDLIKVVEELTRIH

With `O=C1CCC(N2Cc3c(ccc4c3OCC43CCN(Cc4cccs4)CC3)C2=O)C(=O)N1` (centres unmarked) [Compound A182, 3-(6-oxo-1′-(thiophen-2-ylmethyl)-6,8-dihydro-2H,7H-spiro[furo[2,3-e]isoindole-3,4′-piperidin]-7-yl)piperidine-2,6-dione], the DC50 (usually the concentration at which degradation of the target reaches its halfway point) is above 500 nM and the Dmax – broadly, the largest share of the target that was removed – fell in the range of 40 to 60%.

`O=C1CCC(N2Cc3c(ccc4c3OCC43CCN(Cc4ccsc4)CC3)C2=O)C(=O)N1` (centres unmarked) [Compound A183, 3-(6-oxo-1′-(thiophen-3-ylmethyl)-6,8-dihydro-2H,7H-spiro[furo[2,3-e]isoindole-3,4′-piperidin]-7-yl)piperidine-2,6-dione]: the half-maximal degradation concentration (DC50) was 200 to 500 nM and the Dmax is 40 to 60%.

Consider `O=C1CCC(N2Cc3c(ccc4c3OCC43CCN(Cc4cc5ccccc5s4)CC3)C2=O)C(=O)N1` (centres unmarked) [Compound A184, 3-(1′-(benzo[b]thiophen-2-ylmethyl)-6-oxo-6,8-dihydro-2H,7H-spiro[furo[2,3-e]isoindole-3,4′-piperidin]-7-yl)piperidine-2,6-dione], for which the half-maximal degradation concentration (DC50) is above 500 nM and the Dmax was below 40%.

As to `O=C1CCC(N2Cc3c(ccc4c3OCC43CCN(Cc4csc5ccccc45)CC3)C2=O)C(=O)N1` (centres unmarked) [Compound A185, 3-(1′-(benzo[b]thiophen-3-ylmethyl)-6-oxo-6,8-dihydro-2H,7H-spiro[furo[2,3-e]isoindole-3,4′-piperidin]-7-yl)piperidine-2,6-dione], the half-maximal degradation concentration (DC50) was below 50 nM and the maximal degradation (Dmax) fell in the range of 60 to 80%.

As to `O=C1CCC(N2Cc3c(ccc4c3OCC43CCN(Cc4cccc5sccc45)CC3)C2=O)C(=O)N1` (centres unmarked) [Compound A186, 3-(1′-(benzo[b]thiophen-4-ylmethyl)-6-oxo-6,8-dihydro-2H,7H-spiro[furo[2,3-e]isoindole-3,4′-piperidin]-7-yl)piperidine-2,6-dione], the DC50 was below 50 nM and the maximal degradation (Dmax) was above 80%.

For `O=C1CCC(N2Cc3c(ccc4c3OCC43CCN(Cc4cccc5ccsc45)CC3)C2=O)C(=O)N1` (centres unmarked) [Compound A189, 3-(1′-(benzo[b]thiophen-7-ylmethyl)-6-oxo-6,8-dihydro-2H,7H-spiro[furo[2,3-e]isoindole-3,4′-piperidin]-7-yl)piperidine-2,6-dione], the DC50 is 50 to 200 nM and the greatest degradation seen (Dmax) fell in the range of 60 to 80%.

As to `Cn1cc(-c2ccc(CN3CCC4(CC3)COc3c4ccc4c3CN(C3CCC(=O)NC3=O)C4=O)s2)cn1` (centres unmarked) [Compound A190, 3-(1′-((5-(1-methyl-1H-pyrazol-4-yl)thiophen-2-yl)methyl)-6-oxo-6,8-dihydro-2H,7H-spiro[furo[2,3-e]isoindole-3,4′-piperidin]-7-yl)piperidine-2,6-dione], the DC50 was above 500 nM and the Dmax fell in the range of 40 to 60%.

In the case of `CC(C)c1ccc(CN2CCC3(CC2)COc2c3ccc3c2CN(C2CCC(=O)NC2=O)C3=O)cc1` (centres unmarked) [Compound A191, 3-(1′-(4-isopropylbenzyl)-6-oxo-6,8-dihydro-2H,7H-spiro[furo[2,3-e]isoindole-3,4′-piperidin]-7-yl)piperidine-2,6-dione], the 50% degradation concentration (DC50) is above 500 nM and the maximal degradation (Dmax) is below 40%.

As to `O=C1CCC(N2Cc3c(ccc4c3OCC43CCN(Cc4ccc(F)cc4)CC3)C2=O)C(=O)N1` (centres unmarked) [Compound A192, 3-(1′-(4-fluorobenzyl)-6-oxo-6,8-dihydro-2H,7H-spiro[furo[2,3-e]isoindole-3,4′-piperidin]-7-yl)piperidine-2,6-dione], the 50% degradation concentration (DC50) is above 500 nM and the Dmax lay within 40 to 60%.

`O=C1CCC(N2Cc3c(ccc4c3OCC43CCN(Cc4ccc5c(c4)OC(F)(F)O5)CC3)C2=O)C(=O)N1` (centres unmarked) [Compound A193, 3-(1′-((2,2-difluorobenzo[d][1,3]dioxol-5-yl)methyl)-6-oxo-6,8-dihydro-2H,7H-spiro[furo[2,3-e]isoindole-3,4′-piperidin]-7-yl)piperidine-2,6-dione]: the DC50 was above 500 nM and the Dmax was below 40%.

Consider `O=C1CCC(N2Cc3c(ccc4c3OCC43CCN(Cc4ccc(C(F)(F)F)cc4)CC3)C2=O)C(=O)N1` (centres unmarked) [Compound A194, 3-(6-oxo-1′-(4-(trifluoromethyl)benzyl)-6,8-dihydro-2H,7H-spiro[furo[2,3-e]isoindole-3,4′-piperidin]-7-yl)piperidine-2,6-dione], for which the 50% degradation concentration (DC50) was above 500 nM and the maximal degradation (Dmax) is below 40%.

For `N#Cc1ccc(CN2CCC3(CC2)COc2c3ccc3c2CN(C2CCC(=O)NC2=O)C3=O)cc1` (centres unmarked) [Compound A195, 4-((7-(2,6-dioxopiperidin-3-yl)-6-oxo-7,8-dihydro-2H,6H-spiro[furo[2,3-e]isoindole-3,4′-piperidin]-1′-yl)methyl)benzonitrile], the half-maximal degradation concentration (DC50) was above 500 nM and the Dmax was below 40%.

For `N#CCc1ccc(CN2CCC3(CC2)COc2c3ccc3c2CN(C2CCC(=O)NC2=O)C3=O)cc1` (centres unmarked) [Compound A196, 2-(4-((7-(2,6-dioxopiperidin-3-yl)-6-oxo-7,8-dihydro-2H,6H-spiro[furo[2,3-e]isoindole-3,4′-piperidin]-1′-yl)methyl)phenyl)acetonitrile], the DC50 lay in the range of 50 to 200 nM and the Dmax lay within 60 to 80%.

On to `O=C1CCC(N2Cc3c(ccc4c3OCC43CCN(Cc4ccc(OC(F)F)cc4)CC3)C2=O)C(=O)N1` (centres unmarked) [Compound A197, 3-(1′-(4-(difluoromethoxy)benzyl)-6-oxo-6,8-dihydro-2H,7H-spiro[furo[2,3-e]isoindole-3,4′-piperidin]-7-yl)piperidine-2,6-dione], for which the 50% degradation concentration (DC50) is above 500 nM and the greatest degradation seen (Dmax) is below 40%.

For `O=C1CCC(N2Cc3c(ccc4c3OCC43CCN(Cc4ccc5[nH]ncc5c4)CC3)C2=O)C(=O)N1` (centres unmarked) [Compound A198, 3-(1′-((1H-indazol-5-yl)methyl)-6-oxo-6,8-dihydro-2H,7H-spiro[furo[2,3-e]isoindole-3,4′-piperidin]-7-yl)piperidine-2,6-dione], the half-maximal degradation concentration (DC50) lay within 200 to 500 nM and the Dmax lay in the range of 60 to 80%.

Regarding `O=C1CCC(N2Cc3c(ccc4c3OCC43CCN(Cc4cccc5c4OCCO5)CC3)C2=O)C(=O)N1` (centres unmarked) [Compound A199, 3-(1′-((2,3-dihydrobenzo[b][1,4]dioxin-5-yl)methyl)-6-oxo-6,8-dihydro-2H,7H-spiro[furo[2,3-e]isoindole-3,4′-piperidin]-7-yl)piperidine-2,6-dione], the DC50 is above 500 nM and the maximal degradation (Dmax) is 60 to 80%.

Regarding `CC(C)(O)c1ccc(CN2CCC3(CC2)COc2c3ccc3c2CN(C2CCC(=O)NC2=O)C3=O)cc1` (centres unmarked) [Compound A200, 3-(1′-(4-(2-hydroxypropan-2-yl)benzyl)-6-oxo-6,8-dihydro-2H,7H-spiro[furo[2,3-e]isoindole-3,4′-piperidin]-7-yl)piperidine-2,6-dione], the half-maximal degradation concentration (DC50) is above 500 nM and the greatest degradation seen (Dmax) was below 40%.

For the compound `CN(C)C(=O)c1ccc(CN2CCC3(CC2)COc2c3ccc3c2CN(C2CCC(=O)NC2=O)C3=O)cc1` (centres unmarked) [Compound A201, 4-((7-(2,6-dioxopiperidin-3-yl)-6-oxo-7,8-dihydro-2H,6H-spiro[furo[2,3-e]isoindole-3,4′-piperidin]-1′-yl)methyl)-N,N-dimethylbenzamide], the half-maximal degradation concentration (DC50) is above 500 nM and the greatest degradation seen (Dmax) is below 40%.

For the compound `CCOc1ccc(CN2CCC3(CC2)COc2c3ccc3c2CN(C2CCC(=O)NC2=O)C3=O)cn1` (centres unmarked) [Compound A202, 3-(1′-((6-ethoxypyridin-3-yl)methyl)-6-oxo-6,8-dihydro-2H,7H-spiro[furo[2,3-e]isoindole-3,4′-piperidin]-7-yl)piperidine-2,6-dione], the DC50 was above 500 nM and the Dmax is below 40%.

Turning to `CC(C)c1cccc(CN2CCC3(CC2)COc2c3ccc3c2CN(C2CCC(=O)NC2=O)C3=O)c1` (centres unmarked) [Compound A203, 3-(1′-(3-isopropylbenzyl)-6-oxo-6,8-dihydro-2H,7H-spiro[furo[2,3-e]isoindole-3,4′-piperidin]-7-yl)piperidine-2,6-dione], the DC50 is above 500 nM and the maximal degradation (Dmax) was below 40%.

With `O=C1CCC(N2Cc3c(ccc4c3OCC43CCN(Cc4cccc(C5CC5)c4)CC3)C2=O)C(=O)N1` (centres unmarked) [Compound A204, 3-(1′-(3-cyclopropylbenzyl)-6-oxo-6,8-dihydro-2H,7H-spiro[furo[2,3-e]isoindole-3,4′-piperidin]-7-yl)piperidine-2,6-dione], the 50% degradation concentration (DC50) was above 500 nM and the Dmax lay within 40 to 60%.

Take `O=C1CCC(N2Cc3c(ccc4c3OCC43CCN(Cc4ccc(C5CC5)cc4)CC3)C2=O)C(=O)N1` (centres unmarked) [Compound A205, 3-(1′-(4-cyclopropylbenzyl)-6-oxo-6,8-dihydro-2H,7H-spiro[furo[2,3-e]isoindole-3,4′-piperidin]-7-yl)piperidine-2,6-dione]: the 50% degradation concentration (DC50) was 200 to 500 nM and the Dmax was in the range of 40 to 60%.

Consider `O=C1CCC(N2Cc3c(ccc4c3OCC43CCN(Cc4ncccn4)CC3)C2=O)C(=O)N1` (centres unmarked) [Compound A206, 3-(6-oxo-1′-(pyrimidin-2-ylmethyl)-6,8-dihydro-2H,7H-spiro[furo[2,3-e]isoindole-3,4′-piperidin]-7-yl)piperidine-2,6-dione], for which the DC50 is above 500 nM and the Dmax was below 40%.

As to `O=C1CCC(N2Cc3c(ccc4c3OCC43CCN(Cc4cccc5c4CCC5)CC3)C2=O)C(=O)N1` (centres unmarked) [Compound A207, 3-(1′-((2,3-dihydro-1H-inden-4-yl)methyl)-6-oxo-6,8-dihydro-2H,7H-spiro[furo[2,3-e]isoindole-3,4′-piperidin]-7-yl)piperidine-2,6-dione], the DC50 is above 500 nM and the Dmax was below 40%.

Consider `O=C1CCC(N2Cc3c(ccc4c3OCC43CCN(Cc4cccc5c4CCCC5)CC3)C2=O)C(=O)N1` (centres unmarked) [Compound A208, 3-(6-oxo-1′-((5,6,7,8-tetrahydronaphthalen-1-yl)methyl)-6,8-dihydro-2H,7H-spiro[furo[2,3-e]isoindole-3,4′-piperidin]-7-yl)piperidine-2,6-dione], for which the DC50 was below 50 nM and the greatest degradation seen (Dmax) lay in the range of 60 to 80%.
